Test results taken from article PMC9688344, “[^225Ac]Ac-SibuDAB for Targeted Alpha Therapy of Prostate Cancer: Preclinical Evaluation and Comparison with [^225Ac]Ac-PSMA-617” (Cancers, 2022).

System: immunocompetent FVB mice
Assay: Tolerability study in immunocompetent mice
Type: in vivo
Description: Five- to six-week-old immunocompetent, female FVB mice were purchased from Charles River Laboratories (Sulzfeld, Germany). After an acclimatization period of at least 7 days, the mice (n = 5 per group) were intravenously injected with 30 kBq [^225Ac]Ac-SibuDAB or 30 kBq [^225Ac]Ac-PSMA-617 and additional mice (n = 7 per group) remained untreated as controls. Mice were monitored by measuring their body mass and potential signs of pain or unease three times a week (Supplementary Material: Section S7). The mice were euthanized on Day 10, Day 28 or on Day 56, respectively, and variable parameters were assessed from blood and tissue samples.
Hematological analysis was performed using blood samples taken by cardiac puncture immediately after euthanasia. Blood and bone marrow smears were prepared and stained using the Pappenheim protocol. The assessment was carried out by a board-certified veterinary anatomic pathologist (AnaPath Services GmbH, Liestal, Switzerland). Blood plasma parameters were determined in plasma after centrifugation of blood samples obtained shortly before euthanasia (Supplementary Material: Section S7).
Tissue sections of formalin-fixed paraffin-embedded (FFPE) spleen, salivary glands and kidneys were prepared and stained with hematoxylin and eosin (H&E) by AnaPath Services GmbH (Liestal, Switzerland). The tissues were analyzed by a board certified veterinary pathologist using a pre-defined scoring system (Supplementary Material: Section S7). […]
The percentage of radioligand bound to mouse or human plasma (A bound) was plotted against the molar ratios of MSA/HSA to radioligand and fitted with a nonlinear regression curve (specific binding with Hill slope, Bmax set to 100%) using GraphPad Prism software (version 8) to obtain the half maximum binding (B 50).
Results: The results are reported in the main article.
Purpose: A tolerability study with normal, immunocompetent FVB mice was con-ducted in order to assess potential side effects to the bone marrow, spleen, salivary glands and kidneys after the application of high activities of the 225Ac-labeled PSMA radioligands.
Methods: Monitoring Body Mass and Signs of Unease: Mice were monitored by meas-uring their body mass (BM) three times a week. The body masses were expressed as the relative body mass, defined as [BMx/BM0], where BMx is the body mass in grams on a given Day x and BM0 is the body mass in grams on Day 0. Endpoint criteria, defined as (i) >15% loss in body mass, (ii) signs of unease and pain or a combination thereof based on a scoring system, were not reached in this stu dy.
Hematology: Blood cell counts were determined in blood samples taken by cardiac puncture immediately after euthanasia and collected in EDTA tubes (Microvette® 100 K3 EDTA, Sarstedt, Germany). Leukocyte, lymphocyte, erythrocyte and thrombocyte counts as well as hemoglobin and hematocrit values were determined using a hematology ana-lyzer (VetScan HM5, Abaxis, United States). Blood smears were prepared on glass slides with cardiac blood. The bone marrow was collected from the femur, diluted in FCS/H2O (2:1 v/v) and smeared onto microscopy slides using a paintbrush. The slides were stained with a May Grünwald solution and subsequently with diluted Giemsa solution using the Pappenheim method and covered with coverslips using mounting medium (Pertex).
The assessment of potential morphological ch anges of the blood cells and counting of the subgroups of leukocytes was performed by a board-certified veterinary pathologist (Ana-Path Services GmbH, Liestal, Switzerland).
Histopathological Analysis: Spleen, salivary glands and kidneys were formalin-fixed and paraffin-embedded. Tissue sections were stained with hematoxylin & eosin (H&E) […]
Blood Plasma Parameters: Blood plasma parameters were determined in plasma ob-tained from centrifuged retrobulbar blood samples collected in lithium-heparin tubes (Mi-crovette® 200 LH, SARSTEDT). The concentrations of blood urea nitrogen (BUN), alkaline […]

CC(C)Cc1ccc(C(C)C(=O)NC(CCN)C(=O)NCCCCC(NC(=O)CN2CCN(CC(=O)[O-])CCN(CC(=O)[O-])CCN(CC(=O)[O-])CC2)C(=O)NCC2CCC(C(=O)NC(Cc3ccc4ccccc4c3)C(=O)NCCCCC(NC(=O)NC(CCC(=O)O)C(=O)O)C(=O)O)CC2)cc1.[225Ac+3] (stereo not shown) [[^225Ac]Ac-SibuDAB]
Tolerability (body mass) (30 kBq per mouse, until Day 56): well tolerated | Kidneys: Hyperplasia/hypertrophy, tubular, incidence (Day 10, 30 kBq): 0 | Kidneys: Hyperplasia/hypertrophy, tubular, score average (Day 10, 30 kBq): 0.0 | Kidneys: Hypertrophy/hyperplasia, tubular with ectasia, incidence (Day 10, 30 kBq): 0 | Kidneys: Hypertrophy/hyperplasia, tubular with ectasia, score average (Day 10, 30 kBq): 0.0 | Kidneys: Inflammatory cells, interstitium, incidence (Day 10, 30 kBq): 0 | Kidneys: Inflammatory cells, interstitium, score average (Day 10, 30 kBq): 0.0 | Kidneys: Inflammatory cells, pelvis, incidence (Day 10, 30 kBq): 0 | Kidneys: Inflammatory cells, pelvis, score average (Day 10, 30 kBq): 0.0 | Kidneys: Mineralization, papilla, incidence (Day 10, 30 kBq): 0 | Kidneys: Mineralization, papilla, score average (Day 10, 30 kBq): 0.0 | Kidneys: Tubular basophilia, incidence (Day 10, 30 kBq): 0 | Kidneys: Tubular basophilia, score average (Day 10, 30 kBq): 0.0 | Salivary glands: Ductal hyperplasia with inflammatory cells, incidence (Day 10, 30 kBq): 0 | Salivary glands: Ductal hyperplasia with inflammatory cells, score average (Day 10, 30 kBq): 0.0 | Salivary glands: Hypertrophy acinar, sublingual, incidence (Day 10, 30 kBq): 0 | Salivary glands: Hypertrophy acinar, sublingual, score average (Day 10, 30 kBq): 0.0 | Salivary glands: Mononuclear cell foci, incidence (Day 10, 30 kBq): 1 | Salivary glands: Mononuclear cell foci, score average (Day 10, 30 kBq): 1.0 | Salivary glands: Necrosis, multifocal, serous acinar cells, incidence (Day 10, 30 kBq): two out of five | Salivary glands: Necrosis, multifocal, serous acinar cells, score average (Day 10, 30 kBq): 1.0 | Salivary glands: Vacuolation, incidence (Day 10, 30 kBq): 1 | Salivary glands: Vacuolation, score average (Day 10, 30 kBq): 1.0 | Spleen: Extramedullary hematopoiesis, incidence (Day 10, 30 kBq): 5 | Spleen: Extramedullary hematopoiesis, score average (Day 10, 30 kBq): 1.2 | Spleen: Hyperplasia, lymphoid, incidence (Day 10, 30 kBq): 1 | Spleen: Hyperplasia, lymphoid, score average (Day 10, 30 kBq): 1.0 | Spleen: Pigment, incidence (Day 10, 30 kBq): 5 | Spleen: Pigment, score average (Day 10, 30 kBq): 1.0 | mice with relative increase of neutrophilic blasts (metamyelocytes) in peripheral blood (Day 10, 30 kBq): one out of five | myelopoiesis in bone marrow smears (group value) (Day 10, 30 kBq): 66% | Salivary glands: Necrosis, multifocal, serous acinar cells, incidence (Day 10, 30 kBq, listed as [225Ac]Ac-SibuDAB): 2 | Bone marrow % E (Day 10, mouse M1): 30% | Bone marrow % M (Day 10, mouse M1): 70% | Bone marrow smear, Notes (Day 10, mouse M1): More blasts, neutrophilic row | Bone marrow % E (Day 10, mouse M2): 50% | Bone marrow % M (Day 10, mouse M2): 50% | Bone marrow % E (Day 10, mouse M3): 40% | Bone marrow % M (Day 10, mouse M3): 60% | Blood smear, Notes (Day 10, mouse M4): More neutrophilic blasts (Metamyelocyte) | Bone marrow % E (Day 10, mouse M4): 30% | Bone marrow % M (Day 10, mouse M4): 70% | Bone marrow smear, Notes (Day 10, mouse M4): More blasts, neutrophilic row | Bone marrow % E (Day 10, mouse M5): 20% | Bone marrow % M (Day 10, mouse M5): 80% | Bone marrow smear, Notes (Day 10, mouse M5): More blasts, neutrophilic row | Albumin concentration in blood plasma (Day 28, 30 kBq): 26 ± 1 g/L | Blood urea nitrogen (Day 28, 30 kBq): 9.1 ± 1.1 mmol/L | Erythrocyte counts (Day 28, 30 kBq): 8.7 ± 0.3 × 10^12/L | Hematocrit (Day 28, 30 kBq): 43 ± 1% | Hemoglobin (Day 28, 30 kBq): 11.2 ± 0.5 g/dL | Kidneys: Hyperplasia/hypertrophy, tubular, incidence (Day 28, 30 kBq): 0 | Kidneys: Hyperplasia/hypertrophy, tubular, score average (Day 28, 30 kBq): 0.0 | Kidneys: Hypertrophy/hyperplasia, tubular with ectasia, incidence (Day 28, 30 kBq): 0 | Kidneys: Hypertrophy/hyperplasia, tubular with ectasia, score average (Day 28, 30 kBq): 0.0 | Kidneys: Inflammatory cells, interstitium, incidence (Day 28, 30 kBq): 1 | Kidneys: Inflammatory cells, interstitium, score average (Day 28, 30 kBq): 1.0 | Kidneys: Inflammatory cells, pelvis, incidence (Day 28, 30 kBq): 2 | Kidneys: Inflammatory cells, pelvis, score average (Day 28, 30 kBq): 1.0 | Kidneys: Mineralization, papilla, incidence (Day 28, 30 kBq): 0 | Kidneys: Mineralization, papilla, score average (Day 28, 30 kBq): 0.0 | Kidneys: Tubular basophilia, incidence (Day 28, 30 kBq): 0 | Kidneys: Tubular basophilia, score average (Day 28, 30 kBq): 0.0 | Salivary glands: Ductal hyperplasia with inflammatory cells, incidence (Day 28, 30 kBq): 0
